Key:
[1] = test system: lethal amount of bacterial lipopolysaccharide (LPS); experiment: lethal shock protocol; type: in vivo, mice
Protocol: Treatment of lethal inflammation/shock. Two compounds, 16α-bromoepiandrosterone (3β-hydroxy-16α-bromoandrostane-17-one) and 3β,16α-dihydroxy-17-oxoandrostane, were used in a lethal shock protocol. In one protocol, 3 mg of 16α-bromoepiandrosterone was administered to one group of animals by oral gavage, while another group received 3 mg of 16α-bromoepiandrosterone by subcutaneous injection. A group of control animals received a placebo control. In this protocol, the 16α-bromoepiandrosterone was administered to mice at 24 hours before and at 1 hour after administration of a lethal amount of bacterial lipopolysaccharide (LPS). By the end of the observation period, 72 hours after LPS administration, none of the vehicle treated placebo control animals had survived, while 65% of animals that received 16α-bromoepiandrosterone by oral administration survived. 50% of the animals that received 16α-bromoepiandrosterone by subcutaneous injection survived. Animals that survived for 72 hours all recovered from the LPS exposure.
In a second assay, 16α-bromoepiandrosterone or 3β,16α-dihydroxy-17-oxoandrostane was administered to mice by oral gavage at 24 hours before and 1 hour after administration of a lethal amount of LPS. A vehicle treated group of animals was used as the placebo control.

Pseudomonas aeruginosa = experiment: clearance of Pseudomonas aeruginosa infection from lung tissue; type: in vivo, CFTR mice; details: 40 mg/kg; day 10; vs vehicle
Protocol: Clearance of bacteria from lung tissue. The capacity of 16α-bromoepiandrosterone to clear a Pseudomonas aeruginosa infection from lung tissue was shown using a previously published protocol, A. van Heeckeren et al., J. Clin. Invest., 100(11):2810-2815 […]; A. van Heeckeren et al., Am. J. Respir. Crit. Care Med., 161:271-279 2000. The protocol was conducted in CFTR mice, which are used as an animal model for human cystic fibrosis, S. D. Freedman et al., Proc. Natl. Acad. Sci. USA, 96(24):13995-14000 1999; W. Zeng et al., Am. J. Physiol. Cell. Physiol. […] Establishment of chronic P. aeruginosa infection using agarose beads containing bacteria (50 μL containing about 6.1×10^4 CFU/animal) was published earlier, J. R. Starke et al., Pediatr. Res., 22:698-702 1987. Two groups of mice (n=9 for each group) were treated with 40 mg/kg of 16α-bromoepiandrosterone or vehicle (control) and the bacterial burden in the lungs of the animals was determined at 10 days after introduction of the agarose beads into the lung.

human whole blood = experiment: γ-interferon production in human whole blood exposed to LPS; type: cell-based; details: 24 hours with LPS; 16α-bromoepiandrosterone at 100 ng/mL
Protocol: Anti-inflammation activity in human cells in vitro. […] The amount of γ-interferon was measured in the growth medium when the cells had been incubated in the presence of LPS for 24 hours.

NF-κB = experiment: inhibition of NF-κB activation in NF-κB-bla THP-1 cells after LPS stimulation; type: cell-based, human
In short: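 THP-1 monocytes stably carrying an NF-κB response element–driven β-lactamase reporter, plated about 24 h before activation with LPS at 0.2 ng/mL. Reporter activity measured by FRET ratiometric detection; values are averages of usually 2-4 runs per compound.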

[2] = test system: CD4^+CD25^+ T regulatory cells; experiment: generation of CD4+CD25+ T regulatory cells after adoptive transfer; type: in vivo, B6 mice; details: 1 mg/animal/day s.c. 14 days
Protocol: Inhibition of the generation of CD4^+CD25^+ T regulatory cells or their activity in vivo. Purified CD4^+CD25^− T cells (5×10^6 cells) from congenic B6.SJL mice (CD45.1) per group were adoptively transferred into each of five B6 mice (CD45.2). The purified CD4^+CD25^− T cells were obtained by fluorescence activated cell sorting (FACS) of the donor cells at least twice. Vehicle (0.1% carboxymethylcellulose, 0.9% saline, 2% tween 80, 0.05% phenol) or 16α-bromoepiandrosterone in vehicle (1 mg/animal/day in 100 μL vehicle) was injected subcutaneously before transfer of the cells from the CD45.1 donor animals and the injections were continued daily for 14 days. Thymus, lymph nodes and spleens were collected from the animals at day 15. Samples of thymus, lymph node and spleen were obtained from individuals, and the cells were labeled with fluorescent antibody that bound to CD4, CD25, CD103 or Foxp3. The cells were then analyzed by flow cytometry to enumerate the numbers of the various cell types. The remainder of cells from lymph nodes and spleen of each treatment group were pooled, pre-enriched for CD4^+CD25^+ cells and then analyzed for CD4^+CD25^+ that arose from the host (endogenous CD45.2 cells) and from donor cells (CD45.1 cells that converted from the CD4^+CD25^− donor phenotype to the CD4^+CD25^+ phenotype after residing in vivo for 15 days). The cells were analyzed by cell sorter. To test for regulatory function, varying numbers of purified converted CD45.1 or endogenous CD45.2 CD4^+CD25^+ cells were co-cultured with 2000 CD4^+CD25^− responder cells, 1×10^5 irradiated spleen cells as antigen presenting cells, and […] of anti-CD3 antibody. Fresh CD4^+CD25^+ cells were used as controls. Proliferation was determined by measurement of ^3H-thymidine uptake 4 days after initiation of culture.

With `C[C@]12CC[C@H](O)C[C@@H]1CC[C@@H]1[C@@H]2CC[C@]2(C)C(=O)[C@H](Br)C[C@@H]12` [16α-bromoepiandrosterone] the “survival 72 hours after LPS” value ([1]; 3 mg oral gavage 24 h before and 1 h after LPS) was 65%, the “survival 72 hours after LPS” value ([1]; 3 mg subcutaneous injection 24 h before and 1 h after LPS) was 50% and the “survival 72 hours after LPS” value ([1]; second assay, oral gavage 24 h before and 1 h after LPS) was 80%. For the same molecule, the “bacterial burden in the lungs” value (Pseudomonas aeruginosa) was “reduced”, the “production of γ-interferon” value (human whole blood) was “Reduced production” and the “maximum inhibition of NF-κB” value (NF-κB) was 100%. The IC50 (NF-κB; LPS stimulation, 50% of the compound's maximum inhibition, averages, read-out: IC50) was 8.8 µM, the “donor CD45.1 CD4^+CD25^+CD103^+ cells of total donor CD4^+CD25^+ cells in spleen” value [2] was 9.63% and the “proportion of endogenous CD45.2 CD4^+CD25^+CD103^+ Treg cells in spleen” value [2] was 13.40%. The “donor CD45.1 CD4^+CD25^+ cell number in spleen” value ([2]; day 15) was 0.62×10^5 cells, the “endogenous CD45.2 CD4^+CD25^+ cell number in spleen” value ([2]; day 15) was 5.49×10^6 cells and the “endogenous CD45.2 CD4^+CD25^+ cells in the thymus” value ([2]; day 15) was 1.59×10^5.

— patent publication US20080221074A1, “Drug Screen and Treatment Method” (priority 2006, published 2008)
